Results published in PMC10056899, “Neuroprotective and Antiherpetic Properties of Polyphenolic Compounds from Maackia amurensis Heartwood” (Molecules, 2023).
Values after ≈ are worked out from the molar mass of the structure shown. Values joined by “and” are separate entries in the source; they are usually repeats but may differ in a detail not shown here. Equal entries are not always repeated. Where two headings read alike, the source gives them in different places.

Assays:
[1] = DPPH radical scavenging assay; conditions: 20 min; for IC50: read-out: DPPH Scavenging Effect IC50
Method: The DPPH (2,2-diphenyl-1-picrylhydrazyl) scavenging effect of polyphenolic compounds 1-6 from M. amurensis heartwood was evaluated as described previously in [40]. Stilbenes were added to DPPH solution in MeOH (10^−4 M) at a concentration range from 1 to 34 µM. The mixture was kept in the dark at room temperature for 20 min. Then, we measured the absorbance at 517 nm using a Shimadzu UV 1240 spectrophotometer (Shimadzu, Kyoto, Japan). The DPPH radical-scavenging effect (%) of the stilbenes was calculated using Equation (1): (1) DPPH scavenging effect, %=A0−Ax/A0×100, where: • A0 is the absorbance of DPPH solution without polyphenolic compounds (blank sample); • Ax is the absorbance of DPPH solution in the presence of different concentrations of polyphenolic compounds.
Quercetin and ascorbic acid were used as reference compounds. All experiments were performed in triplicate. The half maximal inhibitory concentration (IC50) for polyphenolic compounds was calculated by plotting the DPPH scavenging effect (%) against the concentrations of polyphenolic compounds. IC50 values are given as the mean ± SEM.

[2] = Ferric reducing antioxidant power (FRAP) assay; conditions: 4 min, pH 3.6
Method: The FRAP assay was carried out as described in [41]. We prepared FRAP reagent by mixing 2.5 mL of TPTZ (2,4,6-tris(2-pyridyl)-s-triazine) solution (10 mM) in 40 mM HCl and […] of FeCl3 solution (20 mM) in acetate buffer solution (300 mM, pH 3.6). Then, we added stilbenes 1–6 to 3 mL of FRAP reagent at concentrations from 1 to 34 µM. The mixture was kept in the dark at room temperature for 4 min. Then, we measured the absorbance at 595 nm using a Shimadzu UV 1240 spectrophotometer. Equation (2) was used to calculate the FRAP values of stilbenes 1–6:(2) FRAP=CFe/Cx, where: • CFe is the concentration of Fe^2+ (µM) formed in the reaction; • Cx is the concentration of polyphenolic compounds in the reacting mixture.
The concentration of Fe^2+ (µM) formed in the reaction was determined using the calibration curve obtained for different concentrations of FeSO4·7H2O.

[3] = Cytotoxicity against Vero cells (MTT assay); assay type: cell-based; conditions: African green monkey (Chlorocebus sp.)
Method: (§1) The HSV-1 strain L2 and Vero cell culture (kidney epithelial cells of the African green monkey Chlorocebus sp.) were obtained from the N.F. Gamaleya Federal Research Centre for Epidemiology and Microbiology (Moscow, Russia). HSV-1 was grown in Vero cells, using Dulbecco′s Modified Eagle′s Medium (DMEM, Biolot, St. Petersburg, Russia) supplemented with 10% fetal bovine serum (FBS, Biolot, St. Petersburg, Russia) and 100 U/mL of gentamycin (Dalkhimpharm, Khabarovsk, Russia), at 37 °C in a CO2 incubator. In the maintenance medium, the FBS concentration was decreased to 1%.
(§2) The tested compounds were dissolved in DMSO (Sigma, St. Louis, MO, USA) at a concentration 10 mg/mL and stored at −20 °C. For cytotoxicity and anti-HSV-1 activity determination, the stock solutions were diluted with DMEM so that the final concentration of DMSO was 0.5%.
The cytotoxicity evaluation of the studied compounds was performed using the MTT assay, as described previously. In brief, confluent Vero cells in 96-well microplates (1 × 10^4 cells/well) were incubated with tested compounds at various concentrations (1–500 μg/mL) at 37 °C for 48 h (5% CO2). Untreated cells were used as controls. Then, MTT solution (methylthiazolyltetrazolium bromide, Sigma, St. Louis, MO, USA) was added to cells at a concentration of 5 mg/mL and the cells were incubated at 37 °C for 2 h. After dissolution of formazan crystals, optical densities were read at 540 nm (Labsystems Multiskan RC, Vantaa, Finland). […] [42]. Experiments were performed in triplicate and repeated three times.

HSV-1 [4] = experiment: Anti-HSV-1 activity, cytopathic effect (CPE) inhibition assay in Vero cells; assay type: cell-based, HSV-1 strain L2; conditions: for IC50: read-out: IC50 (CPE assay); for SI = CC50/IC50: Vero cells, HSV-1
Method: as §1, §2
The anti-HSV-1 activity of stilbenes was evaluated using cytopathic effect (CPE) inhibition assay in Vero cells. We infected the monolayer of cells grown in 96-well plates (1 × 10^4 cells/well) with 100 µL/well of virus suspension (100 TCD50/mL) and we simultaneously treated it with stilbenes 1–6 (100 µL/well) at various concentrations (from 1 to 400 μg/mL) for one hour at 37 ◦C. After virus absorption, we removed the mixture of virus and stilbenes, washed the cells, and added the maintenance medium with 1% FBS. […] We used MTT assay to evaluate the antiviral activity of stilbenes. The viral inhibition rate (IR, %) was calculated according to Equation (3):(3) IR, %=Atv−Acv/Acd−Acv×100, where: • Atv is the absorbance of cells infected with virus and treated with a polyphenolic compound; • Acv is the absorbance of the untreated virus-infected cells; • Acd is the absorbance of control (untreated and non-infected) cells.
The selectivity index (SI) was calculated as the ratio of CC50 to IC50. Experiments were repeated three times.

HSV-1 [5] = experiment: Anti-HSV-1 activity, HSV-1 DNA level by real-time PCR (RT-PCR); assay type: cell-based, HSV-1 strain L2; conditions: 5 µg/mL, simultaneous treatment, 48 h; for 1, 4 and Maxar given on average
Method: The anti-HSV-1 activity of the polyphenolic compounds from M. amurensis was also studied using the real-time PCR (RT-PCR) technique (Figure 5 and Table S69, Supplementary Data). Vero cells were simultaneously infected with 100 TCD50/mL HSV-1 and treated with polyphenolic compounds 1–6 at concentrations of 50 and 5 μg/mL. After 48 h of cell incubation, viral DNA was extracted from the supernatants, and the relative level of HSV-1 DNA was determined using RT-PCR. The effect of stilbenes on the relative level of viral DNA was assessed by 2^−ΔCt method and reported as fold reduction relative to virus control, to which the value of 1.0 was assigned.
For the viral DNA extraction assay, Vero cells grown in 96-well plates were infected with HSV-1 and simultaneously treated with polyphenolic compounds and incubated at 37 °C in a CO2-incubator for 48 h. After incubation, the culture media and the cells scraped from the plate were transferred to centrifuge tubes. The cell debris was removed by centrifugation at 300× g for 10 min. Then, supernatant was collected and kept at −20 °C. The HSV-1 DNA was extracted from supernatant by using the AmpliSens® DNA-sorb-AM (K1-12-100-CE) nucleic acid extraction kit (Moscow, Russia) according to the manufacturer′s instructions. […]
The DNA HSV was detected in the obtained DNA samples using the AmpliSens® HSV I, II-FRT-100F PCR kit (Moscow, Russia) on a real-time PCR instrument Rotor-Gene Q (Qiagen, Hilden, Nordrhein-Westfalen, Germany) according to the manufacturer′s instructions. […] In the real-time PCR, the amplified product is detected with the use of fluorescent dyes. […] The threshold cycle number, Ct, was measured as the PCR cycle, where the amount of amplified target reached the threshold value. The reduction in the HSV-1 DNA levels in culture supernatants was assessed by the change in the threshold cycle (ΔCt) (Equation (4)):(4) ΔCt=Cttv−Ctcv where: • Cttv is the average Ct value for the infected samples after treatment with polyphenolic compounds; • Ctcv corresponds to the average Ct value for the virus control. […]

[6] = system: PQ-treated Neuro-2a cells; experiment: PQ-induced neurotoxicity model, cell viability (MTT assay); assay type: cell-based, murine; conditions: 10, 1, 0.1 μM, PQ 1 mM
Method: After 24 h of adhesion, we treated Neuro-2a cells (1 × 10^4 cells/well) with stilbenes (0.01–10 μM) for 1 h and added 1 mM of PQ (Sigma-Aldrich, St. Louis, MO, USA). Cells incubated without PQ or with PQ were used as positive and negative control, respectively. After 24 h, we measured the cell viability using MTT assay. The results are presented as percentages of the positive control value.

[7] = system: PQ-treated Neuro-2a cells; experiment: Intracellular ROS level in PQ-treated cells (H2DCF-DA); assay type: cell-based, murine; conditions: 10, 1, 0.1 μM
Method: After 24 h of adhesion, Neuro-2a cells (1 × 10^4 cells/well) were incubated with stilbenes (0.01–10 µM) for 1 h. After that, we added PQ (1 mM) to each well and incubated the cells for 3 h. To study ROS formation, we added 20 µL of 2,7-dichlorodihydrofluorescein diacetate solution ([…], H2DCF-DA, Molecular Probes, Eugene, OR, USA) to each well, so that the concentration was 10 µM, and kept the microplate in a CO2–incubator for additional 30 min at 37 °C.

[8] = system: PQ-treated Neuro-2a cells; experiment: Mitochondrial membrane potential in PQ-treated cells (TMRM); assay type: cell-based, murine; conditions: 10 μM
Method: […] Then, we added PQ (500 μM) and kept the cell suspension in a CO2-incubator for 1 h. Cells incubated without PQ and stilbenes and with PQ only were used as positive and negative control, respectively. We added the tetramethylrhodamine methyl (TMRM) (Sigma-Aldrich, St. Louis, MO, USA) solution (500 nM) to each well and kept the cells for 30 min in a CO2-incubator at 37 °C. The intensity of fluorescence was measured with a PHERAstar […] reader (BMG Labtech, Ortenberg, Germany) at λex = 540 nm and λem = 590 nm. We processed the data by MARS Data Analysis v. 3.01R2 (BMG Labtech, Ortenberg, Germany) and presented the results as percentages of the positive control value.

[9] = Human alphaherpesvirus 1, added to Vero cells simultaneously with the virus, 100 TCD50/mL

Row | Structure (SMILES) | DPPH Scavenging Effect IC50 [1] [µg] | IC50 [1] [µM] | FRAP CFe2+(µM)/Cpolyphenolic compound (µM) [2] | FRAP CFe2+(µM)/Cpolyphenolic compound (μkg/mL) [2] | CC50 at 48 h [3] | IC50 (HSV-1 [4]; [9]) | SI = CC50/IC50 (HSV-1 [4]) | Reduction of relative level of HSV-1 DNA relative to virus control (HSV-1 [5]) [log10] | Effect on viability of PQ-treated cells [6] | IC50 (HSV-1 [4]; Human alphaherpesvirus 1, Vero) | Effect on ROS level in PQ-treated cells [7] | Increase of mitochondrial membrane potential compared to PQ-treated cells [8] [%]
1 | O=c1c(O)c(-c2ccc(O)c(O)c2)oc2cc(O)cc(O)c12 [Quercetin, reference compound] | 2.81 ± 0.12 | 9.3 ± 0.4 | 5.53 ± 0.55 CFe2+(µM)/Cpolyphenolic compound (µM) | 18.3 ± 1.82 CFe2+(µM)/Cpolyphenolic compound (μkg/mL) | – | – | – | – | – | – | – | –
2 | Nc1nc2c(ncn2COCCO)c(=O)[nH]1 [Acyclovir, reference compound] | – | – | – | – | > 1000 µg/mL and > 4 mM | 2.1 µg/mL and 9.3 µM | 430 | 4 | – | – | – | –
3 | COc1ccc(-c2coc3c4c(ccc3c2=O)OC(c2cc(O)cc(O)c2)C(c2ccc(O)c(O)c2)O4)cc1 (stereo not drawn) [Compound 5, maackiasine] | 1.32 ± 0.16 | 2.5 ± 0.3 | 2.50 ± 0.38 CFe2+(µM)/Cpolyphenolic compound (µM) | 4.75 ± 0.72 CFe2+(µM)/Cpolyphenolic compound (μkg/mL) | 156 µg/mL and 297 µM | – | 6.6 and 6.6 ± 0.8 | – | did not show any effect | 23.7 µg/mL and 45 µM | – | –
4 | Oc1cc(O)cc(/C=C/c2ccc(O)c(O)c2)c1 [Compound 2, piceatannol] | 1.05 ± 0.12 | 4.3 ± 0.5 | 15.71 ± 1.43 CFe2+(µM)/Cpolyphenolic compound (µM) | 64.38 ± 5.86 CFe2+(µM)/Cpolyphenolic compound (μkg/mL) | 250 ± 30 µg/mL (≈ 1020 µM) | 22 µg/mL and 90.2 µM | 11.4 ± 1.4 | – | did not show any effect | – | – | –
5 | COc1cc([C@@H]2c3c(O)cc(O)cc3[C@@H]3[C@H]2CO[C@@H]3c2ccc(O)c(O)c2)cc(OC)c1O [Compound 6, maackolin] | 0.90 ± 0.14 | 2 ± 0.3 | – | 51.11 ± 5.86 CFe2+(µM)/Cpolyphenolic compound (μkg/mL) | 256 µg/mL and 567 µM | – | 6.4 and 6.4 ± 0.8 | – | – | 40.2 µg/mL and 88.9 µM | did not decrease the ROS level | 9
6 | O=C1O[C@H]([C@@H](O)CO)C(O)=C1O [Ascorbic acid, reference compound] | 5.83 ± 0.49 | 33.1 ± 2.8 | 3.58 ± 0.29 CFe2+(µM)/Cpolyphenolic compound (µM) | 20.34 ± 0.16 CFe2+(µM)/Cpolyphenolic compound (μkg/mL) | – | – | – | – | – | – | – | –
